Tested on: intracellular HBV DNA
Experiment: Real-time PCR for intracellular HBV DNA in HepAD38 cells
Type: cell-based
Details: 65 hours treatment
Method: HepAD38 cells were cultured in DMEM medium (Welgene) supplemented with 200 unit/mL penicillin, 200 μg/mL streptomycin, and 10% FBS. During maintenance and passage, the cells were cultured together with 0.4 μg/mL tetracycline. Two days before the treatment with compounds for inducing HBV replication was started, the medium was replaced with a tetracycline-free complete growth medium. […]
HepAD38 cells were treated with a compound for 65 hours and then recovered, and intracellular HBV DNA was extracted therefrom according to the protocol in the DNeasy Blood & Tissue Kit (Qiagen). The primers and probes used to quantify HBV DNA were 5′-[…]-3′, 5′-[…]-3′, and 5′-/56-FAM/TGT CCT GGT/ZEN/TAT CGC TGG ATG TGT CT/3IABkFQ/-3′. The HBV DNA was amplified by real-time PCR assay using LightCycler 480 (Roche) (J. Virol., 2018, 92(16):e00339-18). All of the processes were confirmed in duplicate.

[1] = Hepatitis B virus, HePAD38, 65 h

Compound: COc1ncc(N(Cc2cc(C(F)(F)F)[nH]n2)C(=O)Nc2nc(Cl)cc(C)c2F)cn1 [Example 141, 3-(6-chloro-3-fluoro-4-methylpyridin-2-yl)-1-(2-methoxypyrimidin-5-yl)-1-((5-(trifluoromethyl)-1H-pyrazol-3-yl)methyl)urea]
- IC50 [1]: 420 nM

Compound: COc1ncc(N(Cc2cc(C(F)(F)F)[nH]n2)C(=O)Nc2ccc(F)c(F)n2)cn1 [Example 170, 3-(5,6-difluoropyridin-2-yl)-1-(2-methoxypyrimidin-5-yl)-1-((5-(trifluoromethyl)-1H-pyrazol-3-yl)methyl)urea]
- IC50 [1]: 300 nM

Compound: COc1ncc(N(Cc2n[nH]c(C(F)F)c2CC(C)(C)O)C(=O)Nc2ccc(F)c(Cl)c2)cn1 [Example 103, 3-(3-chloro-4-fluorophenyl)-1-((5-(difluoromethyl)-4-(2-hydroxy-2-methylpropyl)-1H-pyrazol-3-yl)methyl)-1-(2-methoxypyrimidin-5-yl)urea]
- IC50 [1]: > 1100 nM

Compound: N#Cc1ccc(N(Cc2n[nH]c3c2CCCO3)C(=O)Nc2ccc(F)c(Cl)c2)cn1 [Example 124, 3-(3-chloro-4-fluorophenyl)-1-(6-cyanopyridin-3-yl)-1-((1,4,5,6-tetrahydropyrano[2,3-c]pyrazol-3-yl)methyl)urea]
- IC50 [1]: 47 nM

Compound: COc1ncc(N(Cc2cc(C(F)(F)F)[nH]n2)C(=O)Nc2cc(F)c(F)c(Cl)c2)cn1 [Example 11, 3-(3-chloro-4,5-difluorophenyl)-1-(2-methoxypyrimidin-5-yl)-1-((5-(trifluoromethyl)-1H-pyrazol-3-yl)methyl)urea]
- IC50 [1]: 10 nM

Compound: COc1ncc(N(Cc2cc(C(F)(F)F)[nH]n2)C(=O)Nc2cccc(C(F)F)n2)cn1 [Example 177, 3-(6-(difluoromethyl)pyridin-2-yl)-1-(2-methoxypyrimidin-5-yl)-1-((5-(trifluoromethyl)-1H-pyrazol-3-yl)methyl)urea]
- IC50 [1]: 100 nM

Compound: COc1cc(N(Cc2cc(C(F)(F)F)[nH]n2)C(=O)Nc2ccc(F)c(C(F)F)c2)cnn1 [Example 203, 3-(3-(difluoromethyl)-4-fluorophenyl)-1-(6-methoxypyridazin-4-yl)-1-((5-(trifluoromethyl)-1H-pyrazol-3-yl)methyl)urea]
- IC50 [1]: 13 nM

Compound: COc1ccc(N(Cc2n[nH]c(C(F)F)c2OC)C(=O)Nc2ccc(F)c(Cl)c2)cn1 [Example 100, 3-(3-chloro-4-fluorophenyl)-1-((5-(difluoromethyl)-4-methoxy-1H-pyrazol-3-yl)methyl)-1-(6-methoxypyridin-3-yl)urea]
- IC50 [1]: 36 nM

Compound: COC12CC(N(Cc3cc(C(F)(F)F)[nH]n3)C(=O)Nc3ccc(F)c(C#N)c3)(C1)C2 [Example 162, 3-(3-cyano-4-fluorophenyl)-1-(3-methoxybicyclo[1.1.1]pentan-1-yl)-1-((5-(trifluoromethyl)-1H-pyrazol-3-yl)methyl)urea]
- IC50 [1]: 36 nM

Compound: COc1ncc(N(Cc2cc(C(F)(F)F)[nH]n2)C(=O)Nc2cnc(SC)nc2)cn1 [Example 218, 1-(2-methoxypyrimidin-5-yl)-3-(2-(methylthio)pyrimidin-5-yl)-1-((5-(trifluoromethyl)-1H-pyrazol-3-yl)methyl)urea]
- IC50 [1]: > 1100 nM

Compound: COc1ncc(N(Cc2cc(C(F)(F)F)[nH]n2)C(=O)Nc2cncnc2)cn1 [Example 2, 1-(2-methoxypyrimidin-5-yl)-3-(pyrimidin-5-yl)-1-((5-(trifluoromethyl)-1H-pyrazol-3-yl)methyl)urea]
- IC50 [1]: > 1100 nM

Compound: COc1ncc(N(Cc2cc(C(F)(F)F)[nH]n2)C(=O)Nc2cc(F)c(F)c(C#N)c2)cn1 [Example 149, 3-(3-cyano-4,5-difluorophenyl)-1-(2-methoxypyrimidin-5-yl)-1-((5-(trifluoromethyl)-1H-pyrazol-3-yl)methyl)urea]
- IC50 [1]: 600 nM

Compound: COc1ccc(N(Cc2n[nH]c(C(F)(F)F)c2CC2OC(C)(C)C(C)(C)O2)C(=O)Nc2ccc(F)c(Cl)c2)cn1 [Example 87, 3-(3-chloro-4-fluorophenyl)-1-(6-methoxypyridin-3-yl)-1-((4-((4,4,5,5-tetramethyl-1,3-dioxolan-2-yl)methyl)-5-(trifluoromethyl)-1H-pyrazol-3-yl)methyl)urea]
- IC50 [1]: 34 nM

Compound: COc1ncc(N(Cc2n[nH]c(C(F)(F)F)c2CC(C)(C)O)C(=O)Nc2ccc(F)c(C(F)F)c2)cn1 [Example 205, 3-(3-(difluoromethyl)-4-fluorophenyl)-1-((4-(2-hydroxy-2-methylpropyl)-5-(trifluoromethyl)-1H-pyrazol-3-yl)methyl)-1-(2-methoxypyrimidin-5-yl)urea]
- IC50 [1]: > 1100 nM

Compound: COc1ncc(N(Cc2cc(C(F)(F)F)[nH]n2)C(=O)Nc2cc(C)c(F)c(Cl)c2)cn1 [Example 140, 3-(3-chloro-4-fluoro-5-methylphenyl)-1-(2-methoxypyrimidin-5-yl)-1-((5-(trifluoromethyl)-1H-pyrazol-3-yl)methyl)urea]
- IC50 [1]: 37 nM

Compound: COc1ncc(N(Cc2cc(C(F)F)[nH]n2)C(=O)Nc2ccc(F)c(Cl)c2)cn1 [Example 84, 3-(3-chloro-4-fluorophenyl)-1-((5-(difluoromethyl)-1H-pyrazol-3-yl)methyl)-1-(2-methoxypyrimidin-5-yl)urea]
- IC50 [1]: 17 nM

Compound: COc1ncc(N(Cc2cc(C(F)F)[nH]n2)C(=O)Nc2ccc(F)c(C(F)F)c2)cn1 [Example 190, 1-((5-(difluoromethyl)-1H-pyrazol-3-yl)methyl)-3-(3-(difluoromethyl)-4-fluorophenyl)-1-(2-methoxypyrimidin-5-yl)urea]
- IC50 [1]: 20 nM

Compound: COc1ncc(N(Cc2cc(C(F)(F)F)[nH]n2)C(=O)Nc2cc(C#N)c(F)cn2)cn1 [Example 161, 3-(4-cyano-5-fluoropyridin-2-yl)-1-(2-methoxypyrimidin-5-yl)-1-((5-(trifluoromethyl)-1H-pyrazol-3-yl)methyl)urea]
- IC50 [1]: 74 nM

Compound: COc1ncc(N(Cc2cc(C(F)(F)F)[nH]n2)C(=O)NC23CC(C)(C2)C3)cn1 [Example 217, 1-(2-methoxypyrimidin-5-yl)-3-(3-methylbicyclo[1.1.1]pentan-1-yl)-1-((5-(trifluoromethyl)-1H-pyrazol-3-yl)methyl)urea]
- IC50 [1]: > 1100 nM

Compound: N#Cc1cc(N(Cc2n[nH]c3c2COCC3)C(=O)Nc2ccc(F)c(Cl)c2)ccn1 [Example 123, 3-(3-chloro-4-fluorophenyl)-1-(2-cyanopyridin-4-yl)-1-((1,4,6,7-tetrahydropyrano[4,3-c]pyrazol-3-yl)methyl)urea]
- IC50 [1]: 249 nM

Compound: COc1ncc(N(Cc2cc(C(F)(F)F)[nH]n2)C(=O)Nc2ccnc(C#N)c2F)cn1 [Example 158, 3-(2-cyano-3-fluoropyridin-4-yl)-1-(2-methoxypyrimidin-5-yl)-1-((5-(trifluoromethyl)-1H-pyrazol-3-yl)methyl)urea]
- IC50 [1]: 230 nM

Compound: COc1ncc(N(Cc2cc(C(F)(F)F)[nH]n2)C(=O)Nc2cnc(F)c(F)c2)cn1 [Example 171, 3-(5,6-difluoropyridin-3-yl)-1-(2-methoxypyrimidin-5-yl)-1-((5-(trifluoromethyl)-1H-pyrazol-3-yl)methyl)urea]
- IC50 [1]: 280 nM

Compound: COc1ncc(N(Cc2cc(C(F)(F)F)[nH]n2)C(=O)Nc2cccc(F)n2)cn1 [Example 183, 3-(6-fluoropyridin-2-yl)-1-(2-methoxypyrimidin-5-yl)-1-((5-(trifluoromethyl)-1H-pyrazol-3-yl)methyl)urea]
- IC50 [1]: > 1100 nM

Compound: COc1ccc(N(Cc2cc(C(F)F)[nH]n2)C(=O)Nc2ccc(F)c(C(F)F)c2)cn1 [Example 191, 1-((5-(difluoromethyl)-1H-pyrazol-3-yl)methyl)-3-(3-(difluoromethyl)-4-fluorophenyl)-1-(6-methoxypyridin-3-yl)urea]
- IC50 [1]: 24 nM

Compound: COc1ncc(N(Cc2cc(C(F)F)[nH]n2)C(=O)Nc2ccc(Cl)nc2Cl)cn1 [Example 166, 3-(2,6-dichloropyridin-3-yl)-1-((5-(difluoromethyl)-1H-pyrazol-3-yl)methyl)-1-(2-methoxypyrimidin-5-yl)urea]
- IC50 [1]: > 1100 nM

Compound: COc1ncc(N(Cc2cc(C(F)(F)F)[nH]n2)C(=O)Nc2cnc(F)c(Cl)c2)cn1 [Example 107, 3-(5-chloro-6-fluoropyridin-3-yl)-1-(2-methoxypyrimidin-5-yl)-1-((5-(trifluoromethyl)-1H-pyrazol-3-yl)methyl)urea]
- IC50 [1]: 62 nM

Compound: COc1ncc(N(Cc2cc(C(F)F)[nH]n2)C(=O)Nc2cc(F)c(F)c(F)c2)cn1 [Example 220, 1-((5-(difluoromethyl)-1H-pyrazol-3-yl)methyl)-1-(2-methoxypyrimidin-5-yl)-3-(3,4,5-trifluorophenyl)urea]
- IC50 [1]: 48 nM

Compound: COc1ncc(N(Cc2cc(C(F)(F)F)[nH]n2)C(=O)Nc2ccnc(Br)c2F)cn1 [Example 4, 3-(2-bromo-3-fluoropyridin-4-yl)-1-(2-methoxypyrimidin-5-yl)-1-((5-(trifluoromethyl)-1H-pyrazol-3-yl)methyl)urea]
- IC50 [1]: 21 nM

Compound: COc1ncc(N(Cc2cc(C(F)F)[nH]n2)C(=O)Nc2ccc(F)c(C(F)F)n2)cn1 [Example 210, 1-((5-(difluoromethyl)-1H-pyrazol-3-yl)methyl)-3-(6-(difluoromethyl)-5-fluoropyridin-2-yl)-1-(2-methoxypyrimidin-5-yl)urea]
- IC50: 130 nM
